Results reported in patent US11019818B2, “Herbicidal 3-substituted lactams” (FMC Corporation, priority 2017, dated 2021).

Assays:
Format in all cases: in vivo
[1] = test system: barnyardgrass (Echinochloa crus-galli); assay: Test A postemergence, barnyardgrass; settings: 0 to 100 scale (0 no effect, 100 complete control), approx. 10 d
Text: (§1) Seeds of plant species selected from barnyardgrass (Echinochloa crus-galli), kochia (Kochia scoparia), ragweed (common ragweed, Ambrosia elatior), ryegrass, Italian (Italian ryegrass, Lolium multiflorum), foxtail, green (green foxtail, Setaria viridis), and pigweed (Amaranthus retroflexus) were planted into a blend of loam soil and sand and treated preemergence with a directed soil spray using test chemicals formulated in a non-phytotoxic solvent mixture which included a surfactant. At the same time, plants selected from these weed species and also wheat (Triticum aestivum), corn (Zea mays), blackgrass (Alopecurus myosuroides), and galium (catchweed bedstraw, Galium aparine) were planted in pots containing the same blend of loam soil and sand and treated with postemergence applications of test chemicals formulated in the same manner. Plants ranged in height from 2 to 10 cm and were in the one- to two-leaf stage for the postemergence treatment. Treated plants and untreated controls were maintained in a greenhouse for approximately 10 d, after which time all treated plants were compared to untreated controls and visually evaluated for injury. Plant response ratings, summarized in Table A, are based on a 0 to 100 scale where 0 is no effect and 100 is complete control. A dash (-) response means no test result.

[2] = test system: kochia (Kochia scoparia); assay: Test A postemergence, kochia; settings: 0 to 100 scale (0 no effect, 100 complete control), approx. 10 d
Text: as §1

[3] = test system: ragweed (common ragweed, Ambrosia elatior); assay: Test A postemergence, ragweed; settings: 0 to 100 scale (0 no effect, 100 complete control), approx. 10 d
Text: as §1

[4] = test system: ryegrass, Italian (Italian ryegrass, Lolium multiflorum); assay: Test A postemergence, Italian ryegrass; settings: 0 to 100 scale (0 no effect, 100 complete control), approx. 10 d
Text: as §1

[5] = test system: foxtail, green (green foxtail, Setaria viridis); assay: Test A postemergence, green foxtail; settings: 0 to 100 scale (0 no effect, 100 complete control), approx. 10 d
Text: as §1

[6] = test system: pigweed (Amaranthus retroflexus); assay: Test A postemergence, pigweed; settings: 0 to 100 scale (0 no effect, 100 complete control), approx. 10 d
Text: as §1

[7] = test system: wheat (Triticum aestivum); assay: Test A postemergence, wheat; settings: 0 to 100 scale (0 no effect, 100 complete control), approx. 10 d
Text: as §1

[8] = test system: corn (Zea mays); assay: Test A postemergence, corn; settings: 0 to 100 scale (0 no effect, 100 complete control), approx. 10 d
Text: as §1

[9] = test system: blackgrass (Alopecurus myosuroides); assay: Test A postemergence, blackgrass; settings: 0 to 100 scale (0 no effect, 100 complete control), approx. 10 d
Text: as §1

[10] = test system: galium (catchweed bedstraw, Galium aparine); assay: Test A postemergence, galium; settings: 0 to 100 scale (0 no effect, 100 complete control), approx. 10 d
Text: as §1

[11] = test system: barnyardgrass (Echinochloa crus-galli); assay: Test A preemergence, barnyardgrass; settings: 0 to 100 scale (0 no effect, 100 complete control), approx. 10 d
Text: as §1

[12] = test system: kochia (Kochia scoparia); assay: Test A preemergence, kochia; settings: 0 to 100 scale (0 no effect, 100 complete control), approx. 10 d
Text: as §1

[13] = test system: ragweed (common ragweed, Ambrosia elatior); assay: Test A preemergence, ragweed; settings: 0 to 100 scale (0 no effect, 100 complete control), approx. 10 d
Text: as §1

[14] = test system: ryegrass, Italian (Italian ryegrass, Lolium multiflorum); assay: Test A preemergence, Italian ryegrass; settings: 0 to 100 scale (0 no effect, 100 complete control), approx. 10 d
Text: as §1

[15] = test system: foxtail, green (green foxtail, Setaria viridis); assay: Test A preemergence, green foxtail; settings: 0 to 100 scale (0 no effect, 100 complete control), approx. 10 d
Text: as §1

[16] = test system: pigweed (Amaranthus retroflexus); assay: Test A preemergence, pigweed; settings: 0 to 100 scale (0 no effect, 100 complete control), approx. 10 d
Text: as §1

[17] = test system: barnyardgrass (Echinochloa crus-galli); assay: Test B flooded paddy test, barnyardgrass; settings: Flood, 250 g ai/ha; applied to paddy water at 2-leaf stage; visual rating after 13 to 15 d; scale 0 to 100, 0 is no effect, 100 is complete control
Description: (§2) Plant species in the flooded paddy test selected from rice (Oryza sativa), sedge, umbrella (small-flower umbrella sedge, Cyperus difformis), ducksalad (Heteranthera limosa), and barnyardgrass (Echinochloa crus-galli) were grown to the 2-leaf stage for testing. At time of treatment, test pots were flooded to 3 cm above the soil surface, treated by application of test compounds directly to the paddy water, and then maintained at that water depth for the duration of the test. Treated plants and controls were maintained in a greenhouse for 13 to 15 d, after which time all species were compared to controls and visually evaluated. Plant response ratings, summarized in Table B, are based on a scale of 0 to 100 where 0 is no effect and 100 is complete control. A dash (-) response means no test result.

[18] = test system: ducksalad (Heteranthera limosa); assay: Test B flooded paddy test, ducksalad; settings: Flood, 250 g ai/ha; applied to paddy water at 2-leaf stage; visual rating after 13 to 15 d; scale 0 to 100, 0 is no effect, 100 is complete control
Description: as §2

[19] = test system: rice (Oryza sativa); assay: Test B flooded paddy test, rice; settings: Flood, 250 g ai/ha; applied to paddy water at 2-leaf stage; visual rating after 13 to 15 d; scale 0 to 100, 0 is no effect, 100 is complete control
Description: as §2

[20] = test system: sedge, umbrella (small-flower umbrella sedge, Cyperus difformis); assay: Test B flooded paddy test, umbrella sedge; settings: Flood, 250 g ai/ha; applied to paddy water at 2-leaf stage; visual rating after 13 to 15 d; scale 0 to 100, 0 is no effect, 100 is complete control
Description: as §2

Compound	Plant response rating, Barnyardgrass ([1]; 31 g ai/ha)	Plant response rating, Barnyardgrass ([1]; 125 g ai/ha)	Plant response rating, Kochia ([2]; 31 g ai/ha)	Plant response rating, Kochia ([2]; 125 g ai/ha)	Plant response rating, Ragweed ([3]; 31 g ai/ha)	Plant response rating, Ragweed ([3]; 125 g ai/ha)	Plant response rating, Ryegrass, Italian ([4]; 31 g ai/ha)	Plant response rating, Ryegrass, Italian ([4]; 125 g ai/ha)	Plant response rating, Foxtail, Green ([5]; 31 g ai/ha)	Plant response rating, Foxtail, Green ([5]; 125 g ai/ha)	Plant response rating, Pigweed ([6]; 31 g ai/ha)	Plant response rating, Pigweed ([6]; 125 g ai/ha)	Plant response rating, Wheat ([7]; 31 g ai/ha)	Plant response rating, Wheat ([7]; 125 g ai/ha)	Plant response rating, Corn ([8]; 31 g ai/ha)	Plant response rating, Corn ([8]; 125 g ai/ha)	Plant response rating, Blackgrass ([9]; 31 g ai/ha)	Plant response rating, Blackgrass ([9]; 125 g ai/ha)	Plant response rating, Galium ([10]; 31 g ai/ha)	Plant response rating, Galium ([10]; 125 g ai/ha)	further results
CCNC(=O)C1(C(=O)Nc2cccc(F)c2F)C(=O)N(C)CC1c1ccc(C(F)(F)F)cc1 (stereo not drawn) [Compound 7]	0	10	0	0	0	0	0	10	0	20	10	30	0	0	0	0	0	0	0	30	Plant response rating, Barnyardgrass ([11]; 31 g ai/ha): 0; Plant response rating, Barnyardgrass ([11]; 125 g ai/ha): 70; Plant response rating, Kochia ([12]; 31 g ai/ha): 0; Plant response rating, Kochia ([12]; 125 g ai/ha): 0; Plant response rating, Ragweed ([13]; 31 g ai/ha): 0; Plant response rating, Ragweed ([13]; 125 g ai/ha): 0; Plant response rating, Ryegrass, Italian ([14]; 31 g ai/ha): 0; Plant response rating, Ryegrass, Italian ([14]; 125 g ai/ha): 0; Plant response rating, Foxtail, Green ([15]; 31 g ai/ha): 0; Plant response rating, Foxtail, Green ([15]; 125 g ai/ha): 80; Plant response rating, Pigweed ([16]; 31 g ai/ha): 0; Plant response rating, Pigweed ([16]; 125 g ai/ha): 10; Plant response rating, Barnyardgrass [17]: 0; Plant response rating, Ducksalad [18]: 75; Plant response rating, Rice [19]: 30; Plant response rating, Sedge, Umbrella [20]: 0
CC(C)NC(=O)C1(C(=O)Nc2cccc(F)c2F)C(=O)N(C)CC1c1ccc(C(F)(F)F)cc1 (stereo not drawn) [Compound 8]	0	0	0	0	0	0	0	0	0	0	0	0	0	0	0	0	0	0	0	0	Plant response rating, Barnyardgrass ([11]; 31 g ai/ha): 0; Plant response rating, Barnyardgrass ([11]; 125 g ai/ha): 0; Plant response rating, Kochia ([12]; 31 g ai/ha): 0; Plant response rating, Kochia ([12]; 125 g ai/ha): 0; Plant response rating, Ragweed ([13]; 31 g ai/ha): 0; Plant response rating, Ragweed ([13]; 125 g ai/ha): 0; Plant response rating, Ryegrass, Italian ([14]; 31 g ai/ha): 0; Plant response rating, Ryegrass, Italian ([14]; 125 g ai/ha): 0; Plant response rating, Foxtail, Green ([15]; 31 g ai/ha): 0; Plant response rating, Foxtail, Green ([15]; 125 g ai/ha): 0; Plant response rating, Pigweed ([16]; 31 g ai/ha): 0; Plant response rating, Pigweed ([16]; 125 g ai/ha): 0; Plant response rating, Barnyardgrass [17]: 0; Plant response rating, Ducksalad [18]: 0; Plant response rating, Rice [19]: 0; Plant response rating, Sedge, Umbrella [20]: 0
CN(C)CC1(C(=O)Nc2cccc(F)c2F)C(=O)N(C)CC1c1ccc(C(F)(F)F)cc1 (stereo not drawn) [Compound 9]	70	90	50	70	30	30	50	60	50	90	30	80	30	60	40	50	50	60	60	60	Plant response rating, Barnyardgrass ([11]; 31 g ai/ha): 90; Plant response rating, Barnyardgrass ([11]; 125 g ai/ha): 90; Plant response rating, Kochia ([12]; 31 g ai/ha): 30; Plant response rating, Kochia ([12]; 125 g ai/ha): 70; Plant response rating, Ragweed ([13]; 31 g ai/ha): 0; Plant response rating, Ragweed ([13]; 125 g ai/ha): 60; Plant response rating, Ryegrass, Italian ([14]; 31 g ai/ha): 60; Plant response rating, Ryegrass, Italian ([14]; 125 g ai/ha): 80; Plant response rating, Foxtail, Green ([15]; 31 g ai/ha): 90; Plant response rating, Foxtail, Green ([15]; 125 g ai/ha): 90; Plant response rating, Pigweed ([16]; 31 g ai/ha): 70; Plant response rating, Pigweed ([16]; 125 g ai/ha): 80; Plant response rating, Barnyardgrass [17]: 65; Plant response rating, Ducksalad [18]: 95; Plant response rating, Rice [19]: 0; Plant response rating, Sedge, Umbrella [20]: 0
(3S,4R)-3-acetyl-N-(2,3-difluorophenyl)-1-methyl-2-oxo-4-[4-(trifluoromethyl)phenyl]-3-pyrrolidinecarboxamide [Compound 3]	40	70	0	60	0	40	40	50	0	60	40	60	0	40	10	80	20	30	40	50	Plant response rating, Barnyardgrass ([11]; 31 g ai/ha): 80; Plant response rating, Barnyardgrass ([11]; 125 g ai/ha): 90; Plant response rating, Kochia ([12]; 31 g ai/ha): 0; Plant response rating, Kochia ([12]; 125 g ai/ha): 50; Plant response rating, Ragweed ([13]; 31 g ai/ha): 0; Plant response rating, Ragweed ([13]; 125 g ai/ha): 20; Plant response rating, Ryegrass, Italian ([14]; 31 g ai/ha): 20; Plant response rating, Ryegrass, Italian ([14]; 125 g ai/ha): 40; Plant response rating, Foxtail, Green ([15]; 31 g ai/ha): 90; Plant response rating, Foxtail, Green ([15]; 125 g ai/ha): 90; Plant response rating, Pigweed ([16]; 31 g ai/ha): 20; Plant response rating, Pigweed ([16]; 125 g ai/ha): 100; Plant response rating, Barnyardgrass [17]: 45; Plant response rating, Ducksalad [18]: 80; Plant response rating, Rice [19]: 10; Plant response rating, Sedge, Umbrella [20]: 0
